US8420621B2, “Methods of using gamma cyclodextrin to control blood glucose and insulin secretion” (Abbott Laboratories, priority 2004, dated 2013)

Assays:
[1] = system: male fatty Zucker fa/fa rats; experiment: Meal glucose tolerance test, postprandial glycemic response to a carbohydrate challenge; type: in vivo, rat
Text: The objective of the animal study was to evaluate the postprandial glycemic response of male fatty Zucker fa/fa rats to a carbohydrate challenge consisting of gamma-cyclodextrin or maltodextrin.
Twenty male fatty Zucker fa/fa rats were obtained from Harlan (Indianapolis, Ind., USA). At the time of testing, rats weighed ˜450 grams. Rats were individually housed in microisolator cages on dry bedding and were given ad libitum access to water and non-purified rat diet (pelletted; 8640 Harlan Teklad 22/5 Rodent Diet; Harlan Teklad, Madison, Wis., USA). The housing facility was maintained at 19-23° C., 30-70% relative humidity, and 12-hour light-dark cycle.
Test carbohydrates were evaluated in a randomized crossover design with a 7-day washout period between each meal glucose tolerance test (MGTT). Every rat received each treatment. Rats were routinely fed the non-purified diet. After overnight food deprivation, rats were orally fed test meals as a solution. Rats consumed the test meal within 1 minute. Blood samples were collected from the tail vein and immediately analyzed for plasma glucose by the glucose oxidase method utilizing a Precision G Blood Glucose Testing System (Medisense, Inc., Bedford, Mass., USA) before (0 minutes) and 30, 60, 90, 120, and 180 minutes postprandial. Rats had free access to water throughout the […].
Lodex 15® (maltodextrin) was obtained from Cerestar USA (Hammond, Ind., USA) with a dextrose equivalence (DE) of 15. Gamma-cyclodextrin (Wacker Cavamax W8) was obtained from Wacker Biochem Corp., Müchen, Germany. Carbohydrates were made into 500 g/L solutions with water. Each solution was heated in a microwave for 30 seconds to completely solubilize the carbohydrate solutions 1 hour before testing. Test meal volume was ˜1 mL and was adjusted such that each rat was delivered an equivalent carbohydrate challenge (1.0 g/kg body weight).

healthy adult subjects = conditions: single 8 g doses, Koutsou et al. 1999; cited from earlier work

OC[C@H]1O[C@@H]2O[C@H]3[C@H](O)[C@@H](O)[C@@H](O[C@H]4[C@H](O)[C@@H](O)[C@@H](O[C@H]5[C@H](O)[C@@H](O)[C@@H](O[C@H]6[C@H](O)[C@@H](O)[C@@H](O[C@H]7[C@H](O)[C@@H](O)[C@@H](O[C@H]8[C@H](O)[C@@H](O)[C@@H](O[C@H]9[C@H](O)[C@@H](O)[C@@H](O[C@H]1[C@H](O)[C@H]2O)O[C@@H]9CO)O[C@@H]8CO)O[C@@H]7CO)O[C@@H]6CO)O[C@@H]5CO)O[C@@H]4CO)O[C@@H]3CO [Gamma-Cyclodextrin, Gamma-cyclodextrin]
Change from baseline in plasma glucose, Change@ 0 min ([1]; 0 min, 1.0 g/kg body weight oral): 0
Change from baseline in plasma glucose, Change@ 30 min ([1]; 30 min, 1.0 g/kg body weight oral): 52.0 ± 9.4
Plasma glucose, 30 min ([1]; 30 min postprandial, 1.0 g/kg body weight oral): 165.6 ± 10.6
Change from baseline in plasma glucose, Change@ 60 min ([1]; 60 min, 1.0 g/kg body weight oral): 48.1 ± 5.5
Plasma glucose, 60 min ([1]; 60 min postprandial, 1.0 g/kg body weight oral): 161.8 ± 7.8
Change from baseline in plasma glucose, Change@ 90 min ([1]; 90 min, 1.0 g/kg body weight oral): 38.0 ± 4.1
Plasma glucose, 90 min ([1]; 90 min postprandial, 1.0 g/kg body weight oral): 151.6 ± 7.0
Change from baseline in plasma glucose, Change@ 120 min ([1]; 120 min, 1.0 g/kg body weight oral): 39.4 ± 4.3
Plasma glucose, 120 min ([1]; 120 min postprandial, 1.0 g/kg body weight oral): 153.1 ± 6.5
Change from baseline in plasma glucose, Change@ 180 min ([1]; 180 min, 1.0 g/kg body weight oral): 28.9 ± 5.3
Plasma glucose, 180 min ([1]; 180 min postprandial, 1.0 g/kg body weight oral): 142.6 ± 6.4
Glucose concentration compared to consumption of maltodextrin ([1]; at 60 and 90 minutes, P<0.05): lower
Plasma glucose, 0 min ([1]; baseline before test meal, 1.0 g/kg body weight oral, mean ± spread): 113.6 ± 4.2
Glycemic response relative to a comparable amount of Lodex 15 ([1]; oral, 1.0 g/kg, after heat treatment of the solution): blunted glycemic response
Gastrointestinal tolerance (healthy adult subjects): good tolerance
